Target: T1, Alpha-2C adrenergic receptor (Rattus norvegicus, UniProt P22086)
T1 sequence (P22086 whole entry): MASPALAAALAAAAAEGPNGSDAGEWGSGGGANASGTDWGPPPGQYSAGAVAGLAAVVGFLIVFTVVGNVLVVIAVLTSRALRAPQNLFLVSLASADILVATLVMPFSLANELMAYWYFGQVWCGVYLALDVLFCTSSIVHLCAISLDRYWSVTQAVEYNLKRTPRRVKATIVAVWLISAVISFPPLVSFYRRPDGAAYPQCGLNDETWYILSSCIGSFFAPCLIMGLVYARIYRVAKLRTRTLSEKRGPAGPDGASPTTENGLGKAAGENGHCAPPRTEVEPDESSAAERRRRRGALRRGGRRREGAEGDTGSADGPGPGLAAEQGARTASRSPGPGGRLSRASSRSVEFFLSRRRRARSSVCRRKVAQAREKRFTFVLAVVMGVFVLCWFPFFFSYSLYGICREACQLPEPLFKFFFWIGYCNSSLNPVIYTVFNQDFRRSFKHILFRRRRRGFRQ

Structure (SMILES)	Ki [nM]
Nc1nc2c(ncn2[C@@H]2O[C@H](COP(=O)(O)OP(=O)(O)NP(=O)(O)O)[C@@H](O)[C@H]2O)c(=O)[nH]1 [CAS_59803-98-4]	6.2
Nc1ncnc2c1ncn2[C@@H]1O[C@H](COP(=O)(O)OP(=O)(O)OP(=O)(O)O)[C@@H](O)[C@H]1O	3.1
[N-]=[N+]=Nc1ccc(NP(=O)(O)OP(=O)(O)OP(=O)(O)OC[C@H]2O[C@@H](n3cnc4c(=O)[nH]c(N)nc43)[C@H](O)[C@@H]2O)cc1 [CAS_59803-98-4]	1.6
